Experimental data published in patent US5359138A (Zaidan Hojin Biseibutsu Kagaku Kenkyu KaI, priority 1989, dated 1994).
Entries after “also recorded” stand apart in the source; their conditions may differ. Starred links: 1 amine or outer side, 2 acyl side, 3 side chain; linkers in the order of their positions; H or OH if unused. Non-standard residues stand in square brackets, D forms with d. Residues, ends and D or L forms follow the SMILES beside them. ξ: configuration not given here. *: point of attachment. ξ(3-Amino-2-oxopentanoyl) = CCC(N[*:1])C(=O)C(=O)[*:2]; Abu(ψCOCO) = CC[C@H](N[*:1])C(=O)C(=O)[*:2]; Butanoyl(4-Ph) = O=C(CCCc1ccccc1)*; Cbz = O=C(OCc1ccccc1)*; OBn = c1ccc(CO*)cc1

Tests used:
prolylendopeptidase = biological target: T1, prolylendopeptidase (Sus scrofa, UniProt P23687); assay: Determination of anti-prolylendopeptidase activity; type: biochemical, pig; settings: for PPCE = Propylendopeptidase inhibition activity, IC50: pig kidney enzyme, substrate Z-Gly-Pro-beta-naphthylamide, 37° C., 30 minutes, pH 7.8
T1 construct: a pig kidney sample was subjected to a fractionation operation with ammonium sulfate; from tissue; host or cells: pig kidney
T1 sequence (P23687 whole entry): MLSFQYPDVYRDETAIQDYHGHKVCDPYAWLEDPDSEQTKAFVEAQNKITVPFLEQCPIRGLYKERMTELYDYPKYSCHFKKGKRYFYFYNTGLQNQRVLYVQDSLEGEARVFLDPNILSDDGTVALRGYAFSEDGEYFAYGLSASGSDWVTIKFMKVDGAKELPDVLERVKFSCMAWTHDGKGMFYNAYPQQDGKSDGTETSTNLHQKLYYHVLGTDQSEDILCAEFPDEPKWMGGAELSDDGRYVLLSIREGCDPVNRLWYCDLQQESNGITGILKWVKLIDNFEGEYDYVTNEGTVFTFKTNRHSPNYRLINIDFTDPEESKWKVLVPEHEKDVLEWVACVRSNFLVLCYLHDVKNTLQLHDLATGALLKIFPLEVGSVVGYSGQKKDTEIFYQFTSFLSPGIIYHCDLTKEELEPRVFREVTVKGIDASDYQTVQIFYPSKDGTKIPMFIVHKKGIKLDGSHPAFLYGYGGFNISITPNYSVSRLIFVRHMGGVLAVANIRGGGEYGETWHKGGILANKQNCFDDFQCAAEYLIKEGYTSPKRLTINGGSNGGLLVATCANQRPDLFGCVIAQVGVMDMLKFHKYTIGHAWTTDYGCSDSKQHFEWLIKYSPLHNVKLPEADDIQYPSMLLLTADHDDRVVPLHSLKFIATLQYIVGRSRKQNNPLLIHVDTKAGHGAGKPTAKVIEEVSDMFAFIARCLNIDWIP
Procedure: The determination of anti-prolylendopeptidase activity was conducted by a modified method based on the method by Yoshimoto et al (Biochim. Biophys. Acta, vol. 569, pages 184-192 (1979)).
A test tube was charged with a solution mixture consisting of (a) 0.2 ml of a solution of 0.5 mM N-benzyloxycarbonyl-L-glycyl-L-prolyl-beta-naphthylamide in 40% dioxane; (b) 0.5 ml of a 0.05M Tris-HCl buffer solution (pH 7.8); and (c) 0.25 ml of an aqueous solution containing the test material. The solution mixture was heated to 37° C. for 3 minutes, and admixed with 0.05 ml of a prolylendopeptidase solution to effect a reaction at 37° C. for 30 minutes. The prolylendopeptidase employed was that which had been obtained according to a modified method based on the enzyme purification method by Koida, Walter et al. (J. Biol. Chem. Vol. 251, pages 7593-7599 (1976), wherein a pig kidney sample was subjected to a fractionation operation with ammonium sulfate, and wherein a purification was effected by a column chromatography employing a DEAE-Sephadex A-50 column.
After the completion of the reaction, the reaction mixture was admixed with 1 ml of a 1M sodium acetate buffer solution containing 10% of Tween-20 and 0.1% of Fast Garnet GBC salt. The reaction mixture was allowed to stand at room temperature for 15 minutes, and then measured for the light absorption at 525 nm (a). At the same time, a control sample, which was free of the test compounds and contained only the buffer solution, was measured for the light absorption (b).
The prolylendopeptidase inhibition activity was determined by employing the formula: […]

cathepsin B = cathepsin B (Homo sapiens, UniProt P07858); assay: Cathepsin B inhibition activity (method by Knight); type: biochemical
Procedure: The elastase inhibition activity was determined according to a method by Mumford, R. A. et al (J. Biol. Chem., 225, 2227 (1980)). The cathepsin B inhibition activity was determined according to a method by Knight, C. G. (Biochem. J., 189, 447-453 (1980)).

mice = assay: Toxicity, LD50 (i.v.) in mice; type: in vivo
Procedure: The compounds according to the invention have a low toxicity. In the case of mice, LD50 (i.v.) of poststatin is at least 200 mg/kg. Therefore, it can be expected that the compounds according to the invention will be useful, for instance, as a drug for treating amnesia and autoimmune diseases including systemic erythematosus and the like.

Solubility of poststatin = type: physicochemical; settings: solvents as named; listed as poststatin

PPCE = Propylendopeptidase inhibition activity, IC50 (prolylendopeptidase)	CatB = Cathepsin B inhibition activity, IC50 (cathepsin B)	Compound	LD50 (i.v.) (mice)	Solubility (Solubility of poststatin)	IC50 (prolylendopeptidase)	IC50 (cathepsin B; read-out: CatB = Cathepsin B inhibition activity, IC50)
0.04 µg/mL	2.2 µg/mL	CCC(NC(=O)[C@@H](NC(=O)OC(C)(C)C)C(C)C)C(=O)C(=O)N[C@H](CC(C)C)C(=O)OC(C)(C)C (mixture of isomers) [Compound 5, BOC-L-valyl-(RS)-3-amino-2-oxopentanoyl-D-leucyl t-butyl ester]				
0.17 µg/mL	72 µg/mL	CCC(NC(=O)[C@@H]1CCCN1C(=O)[C@@H](NC(=O)CCCc1ccccc1)C(C)C)C(=O)C(=O)N[C@H](CC(C)C)C(=O)N[C@H](C(=O)O)C(C)C (stereo partly drawn) [Compound 7, phenylbutanoyl-L-valyl-L-propyl-3-amino-2-oxopentanoyl-D-leucyl-L-valine] ({Butanoyl(4-Ph)}-VP[ξ(3-Amino-2-oxopentanoyl)][dL]V-OH)				
1 µg/mL	100 µg/mL	CC[C@H](NC(=O)[C@@H](NC(=O)[C@@H](NC(=O)OCc1ccccc1)C(C)C)C(C)C)C(=O)C(=O)N[C@H](CC(C)C)C(=O)N[C@H](C(=O)OCc1ccccc1)C(C)C [Compound 2, Z-L-valyl-L-valyl-(3S)-3-amino-2-oxo-pentanoyl-D-leucyl-L-valine benzyl ester] (Cbz-VV[Abu(ψCOCO)][dL]V-OBn)				
0.007 µg/mL	0.64 µg/mL	CCC(NC(=O)[C@H](Cc1ccccc1)NC(=O)OCc1ccccc1)C(=O)C(=O)N[C@H](CC(C)C)C(=O)N[C@H](C(=O)O)C(C)C (mixture of isomers) [Compound 4, Z-L-phenylalanyl-(RS)-3-amino-2-oxopentanoyl-D-leucyl-L-valine]				
0.11 µg/mL	> 100 µg/mL	CCC(NC(=O)[C@H](Cc1ccccc1)NC(=O)OCc1ccccc1)C(=O)C(=O)N[C@H](CC(C)C)C(=O)N[C@H](C(=O)OC(C)(C)C)C(C)C (mixture of isomers) [Compound 3, Z-L-phenylalanyl-(RS)-3-amino-2-oxopentanoyl-D-leucyl-L-valine t-butyl ester]				
		CCC(NC(=O)[C@@H]1CCCN1C(=O)[C@@H](N)C(C)C)C(=O)C(=O)N[C@H](CC(C)C)C(=O)N[C@H](C(=O)O)C(C)C (stereo partly shown) [Compound 6]			556 nM	> 185000 nM

Compound	PPCE = Propylendopeptidase inhibition activity, IC50 (prolylendopeptidase)	CatB = Cathepsin B inhibition activity, IC50 (cathepsin B)	LD50 (i.v.) (mice)	Solubility (Solubility of poststatin)	IC50 (prolylendopeptidase)	IC50 (cathepsin B; read-out: CatB = Cathepsin B inhibition activity, IC50)
CC[C@H](NC(=O)[C@@H](NC(=O)[C@@H](N)C(C)C)C(C)C)C(=O)C(=O)N[C@H](CC(C)C)C(=O)N[C@H](C(=O)O)C(C)C [Compound 1, L-valyl-L-valyl-(3S)-3-amino-2-oxo-pentanoyl-D-leucyl-L-valyl] (H-VV[Abu(ψCOCO)][dL]V-OH)	0.03 µg/mL	2.1 µg/mL	at least 200 mg/kg	soluble in water, methanol, and dimethyl sulfoxide; also recorded: insoluble in acetone, ethyl acetate, chloroform and hexane		
